Common to all, as to type: in vivo
The test system of assay [1] is epididymal adipocyte of HFD mice. The experiment in a line: Histology of epididymal white adipose tissue (adipocyte hypertrophy). The note with it: 4 weeks, three measurements. The procedure:
(§1) The following experiment was performed and approved by the guidelines of the Institutional Animal Care and Use Committee of Central Taiwan University of Science and Technology. The 4-week old male C57BL/6J mice (total amount n=63) were purchased from the National Laboratory Animal Breeding and Research Center (Taipei, Taiwan). After acclimatization for one week, all of the mice were divided randomly into the control (CON) group and the high-fat diet (HFD) group. For the following 12 weeks, the CON group (n=9) was kept on a low-fat diet (Diet 12450B, Research Diets, Inc., New Brunswick, N.J., USA), while the HFD group (n=54) was exposed to a high-fat diet (Diet 12451, Research Diets, New Brunswick, N.J., USA). The low-fat diet was composed of protein 20%, carbohydrate 70% and fat 10%, whereas the high-fat diet was composed of protein 20%, carbohydrate 35%, and fat 45% (of total energy, % kcal). After HFD exposure for 8 weeks, the HFD group was further randomly subdivided into 6 groups (n=9 per group) to receive different treatments by oral gavage once daily for four weeks and on HFD. […] The HF+B1, HF+B2, and […] are collectively termed BB-treated HFD groups in the following examples. The CON mice were administered vehicle. After dosing for 4 weeks, the mice were given no food at night and sacrificed after 12 h of fasting on the next day. All of the individual tissues were collected and weighed, and portions were instantly frozen using liquid nitrogen and kept at −80° C. for subsequent target gene analysis. Blood samples (0.8 mL) were collected for analysis of blood parameters.
Small pieces of epididymal white adipose tissue and liver tissue were fixed with formalin (200 g/kg) neutral buffered solution and embedded in paraffin. Sections of 8 μm […] were cut and stained with hematoxylin and eosin. For microscopic examination, a microscope (Leica, DM2500) was used, and the images were taken using a Leica Digital Camera (DFC-425-C).
Adipocyte hypertrophy, the pathological enlargement of adipocytes, is often found in subjects with type 2 diabetes and hyperlipidemia. To verify the therapeutic effect of the compound of formula I on adipocyte hypertrophy, morphology of the EWAT for the CON group and the BB-treated HFD groups was examined. Micrographs of the EWAT sections for each group were analyzed to determine the mean area of an epididymal adipocyte using the software ImageJ.

The next assay concerns DGAT2. As to the kind of experiment: Semi-quantitative RT-PCR of liver mRNA: DGAT2. The note with it: HFD mice, 4 weeks, vs HF group. The method, then:
as §1, with “For the following 12 weeks, the CON group (n=9) was kept on a low-fat diet (Diet 12450B, Research Diets, Inc., New Brunswick, N.J., USA), while the HFD group (n=54) was exposed to a high-fat diet (Diet 12451, Research Diets, New Brunswick, N.J., USA). The low-fat diet was composed of protein 20%, carbohydrate 70% and fat 10%, whereas the high-fat diet was composed of protein 20%, carbohydrate 35%, and fat 45% (of total energy, % kcal).” left out
Total RNA from liver tissue of mice was isolated with a Trizol Reagent (Molecular Research Center, Inc., Cincinnati, Ohio, USA) according to the manufacturer's instructions. The integrity of the extracted total RNA was examined by 2% agarose gel electrophoresis, and the RNA concentration was determined by the ultraviolet (UV) light absorbency at 260 nm and 280 nm (Spectrophotometer U-2800A, Hitachi). The quality of the RNA was confirmed by ethidium bromide staining of 18S and 28S ribosomal RNA after electrophoresis on 2% agarose gel containing 6% formaldehyde.
(§2) Levels of mRNA of genes of interest were quantified by semi-quantitative reverse transcription polymerase chain reaction (RT-PCR). […] PCR products were analyzed by 2% agarose gels and stained with ethidium bromide.

Another assay has as its system adiponectin. The experiment in a line: Semi-quantitative RT-PCR of liver mRNA: adiponectin. The note with it: HFD mice; 40 mg/kg/day oral gavage, 4 weeks; vs HF group. The method, then: The following experiment was performed and approved by the guidelines of the Institutional Animal Care and Use Committee of Central Taiwan University of Science and Technology. The 4-week old male C57BL/6J mice (total amount n=63) were purchased from the National Laboratory Animal Breeding and Research Center (Taipei, Taiwan). After acclimatization for one week, all of the mice were divided randomly into the control (CON) group and the high-fat diet (HFD) group. […] After HFD exposure for 8 weeks, the HFD group was further randomly subdivided into 6 groups (n=9 per group) to receive different treatments by oral gavage once daily for four weeks and on HFD. […] The HF+B1, HF+B2, and […] are collectively termed BB-treated HFD groups in the following examples. […]
Total RNA from liver tissue of mice was isolated with a Trizol Reagent (Molecular Research Center, Inc., Cincinnati, Ohio, USA) according to the manufacturer's instructions. The integrity of the extracted total RNA was examined by 2% agarose gel electrophoresis, and the RNA concentration was determined by the ultraviolet (UV) light absorbency at 260 nm and 280 nm (Spectrophotometer U-2800A, Hitachi). […]
as §2

For `OCC1O[C@@H](O[C@@H]2Cc3c(O)cc(O)cc3O[C@@H]2c2ccc(O)c(O)c2)C(O)C(O)[C@@H]1O` (single isomer, unassigned; (-)) [compound of formula I, (−)-epicatechin-3-O-β-D-allopyranoside], the results for the “mean area of an epididymal adipocyte” value in assay [1] (10 mg/kg/day oral gavage), in assay [1] (20 mg/kg/day oral gavage) and in assay [1] (40 mg/kg/day oral gavage) were 6882.8±102.2 μm^2, 6475.5±102.6 μm^2 and 6192.7±100.7 μm^2, respectively. The “liver mRNA level of DGAT2” value in the assay with DGAT2 (10 mg/kg/day oral gavage), in the assay with DGAT2 (20 mg/kg/day oral gavage) and with DGAT2 (40 mg/kg/day oral gavage) was “significantly reduced” in each case. Moreover, the “liver adiponectin mRNA level” value with adiponectin is listed as “enhanced”.

Source of the values: patent US9877980B2, “Method and composition for treatment or prevention of type 2 diabetes and hyperlipidemia” (Chun-Ching Shih, priority 2016, dated 2018).
